For 1 molecule, Ki results are on record in patent publication US12514938B2, “Fibroblast activation protein targeting peptides” (PERSPECTIVE THERAPEUTICS, INC., priority 2023, dated 2026).

*1 amine or outer side, *2 acyl side, *3 side chain or, on linkers, in order; H or OH if unused. Where a SMILES comes first, the peptide text is derived from it. Bridges are numbered along the chain shown (N, C = ends). The star is where a group is joined. X1 = NC(=O)CN1CCN(CC(=O)O)CCN(CC(=O)*)CCN(CC(=O)O)CC1; oXylylene = c1ccc(C[*:2])c(C[*:1])c1; PEG2 = NCCOCCOCCC(=O)O

Common to all, as to assay: Enzyme inhibition assay, binding specificity of VMT-FAP-2-59 (Example 3)
Type in all cases: biochemical
Conditions in all cases: 50 μM Z-GP-AMC

One test addresses T1, mouse FAP (Mus musculus, UniProt P97321).
T1 sequence (P97321 1-761): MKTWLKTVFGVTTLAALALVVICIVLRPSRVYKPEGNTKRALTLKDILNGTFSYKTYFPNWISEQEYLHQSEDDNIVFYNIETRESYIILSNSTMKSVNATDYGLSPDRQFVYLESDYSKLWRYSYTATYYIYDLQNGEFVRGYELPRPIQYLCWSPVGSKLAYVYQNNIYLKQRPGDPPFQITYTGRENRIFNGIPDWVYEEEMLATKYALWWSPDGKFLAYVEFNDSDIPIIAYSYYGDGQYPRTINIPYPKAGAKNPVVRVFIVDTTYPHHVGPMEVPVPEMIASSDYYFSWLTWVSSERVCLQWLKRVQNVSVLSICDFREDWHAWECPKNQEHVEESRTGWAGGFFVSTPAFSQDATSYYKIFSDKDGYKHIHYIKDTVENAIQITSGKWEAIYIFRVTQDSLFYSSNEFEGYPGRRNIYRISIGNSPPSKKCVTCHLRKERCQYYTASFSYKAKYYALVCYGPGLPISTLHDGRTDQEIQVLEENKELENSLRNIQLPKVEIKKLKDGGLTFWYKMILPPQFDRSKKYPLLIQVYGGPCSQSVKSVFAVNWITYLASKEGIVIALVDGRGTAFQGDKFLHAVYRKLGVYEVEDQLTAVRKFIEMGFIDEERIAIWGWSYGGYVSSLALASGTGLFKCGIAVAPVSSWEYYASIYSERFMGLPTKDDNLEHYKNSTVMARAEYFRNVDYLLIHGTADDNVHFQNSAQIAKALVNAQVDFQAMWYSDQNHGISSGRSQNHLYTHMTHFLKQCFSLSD
On the procedure:
(§1) The enzyme inhibition assay was performed to determine inhibitor constant (i.e., Ki) values against human FAP, mouse FAP, human dipeptidyl peptidase 4 (DPPIV) and human prolyl endopeptidase (PREP). Z-GP-AMC was used as substrate for human FAP, mouse FAP and human PREP. GP-AMC was used as substrate for human DPPIV. To perform the assay, VMT-FAP-2-59 at varying concentrations (i.e. 10^−6 to 10^−12) were incubated with 5 ng hFAP, 5 ng mFAP, 2.5 ng DPPIV, or 5 ng PREP in a black 96-well plate for 10 minutes at RT on a shaker plate. The substrate was added to give a final concentration of 50 μM for Z-GP-AMC and GP-AMC. The total reaction volume per well was 100 μL The reaction was allowed to incubate at RT on a shaker plate for 1 hour protected from light, and then fluorescence was read with a BioTek Synergy LX plate reader at an ex/em (360/40 and 460/40). Experiments were performed in at least duplicate. Buffer only, buffer/enzymes, buffer/substrate and enzyme only were included as controls. Data was plotted in GraphPad Prism and non-linear regression used to calculate IC50 values. Binding kinetics (Kd) of VMT-FAP-2-59 against human FAP, human DPPIV and human PREP were also determined by grating-coupled interferometry (GCI). hFAP, hDPPIV and hPREP proteins were fixed on PCH (N=3) chips or PCP (N=2). […] On PCP chips, binding affinity of VMT-FAP-2-29 to hFAP was determined from 39 pM to 20 nM. Binding affinity to hDPPIV and hPREP was determined at concentration from 39 pM to 50 nM.

Test [1] addresses T2, human prolyl endopeptidase (PREP) (Homo sapiens, UniProt P48147).
T2 sequence (P48147 1-710): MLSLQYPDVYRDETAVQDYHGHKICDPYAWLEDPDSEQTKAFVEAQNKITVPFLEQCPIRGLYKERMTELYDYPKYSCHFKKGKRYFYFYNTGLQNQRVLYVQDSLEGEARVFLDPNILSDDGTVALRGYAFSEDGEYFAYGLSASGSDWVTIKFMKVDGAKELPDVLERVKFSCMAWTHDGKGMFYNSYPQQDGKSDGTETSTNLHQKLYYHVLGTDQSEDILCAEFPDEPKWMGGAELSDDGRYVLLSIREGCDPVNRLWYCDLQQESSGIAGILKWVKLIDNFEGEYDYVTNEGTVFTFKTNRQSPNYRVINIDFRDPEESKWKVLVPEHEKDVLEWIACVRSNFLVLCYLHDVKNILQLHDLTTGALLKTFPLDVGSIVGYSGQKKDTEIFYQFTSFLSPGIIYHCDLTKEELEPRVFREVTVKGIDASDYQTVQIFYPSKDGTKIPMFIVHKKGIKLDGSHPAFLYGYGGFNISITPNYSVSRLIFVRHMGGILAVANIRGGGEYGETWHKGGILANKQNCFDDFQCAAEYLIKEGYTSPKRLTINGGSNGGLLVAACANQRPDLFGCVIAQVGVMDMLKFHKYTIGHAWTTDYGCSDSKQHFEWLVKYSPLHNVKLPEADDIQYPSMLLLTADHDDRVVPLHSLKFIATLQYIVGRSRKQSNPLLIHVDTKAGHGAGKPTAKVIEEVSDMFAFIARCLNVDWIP
Here is the method: as §1

A further test deals with T3, human FAP (Homo sapiens, UniProt Q12884).
T3 sequence (Q12884 1-760): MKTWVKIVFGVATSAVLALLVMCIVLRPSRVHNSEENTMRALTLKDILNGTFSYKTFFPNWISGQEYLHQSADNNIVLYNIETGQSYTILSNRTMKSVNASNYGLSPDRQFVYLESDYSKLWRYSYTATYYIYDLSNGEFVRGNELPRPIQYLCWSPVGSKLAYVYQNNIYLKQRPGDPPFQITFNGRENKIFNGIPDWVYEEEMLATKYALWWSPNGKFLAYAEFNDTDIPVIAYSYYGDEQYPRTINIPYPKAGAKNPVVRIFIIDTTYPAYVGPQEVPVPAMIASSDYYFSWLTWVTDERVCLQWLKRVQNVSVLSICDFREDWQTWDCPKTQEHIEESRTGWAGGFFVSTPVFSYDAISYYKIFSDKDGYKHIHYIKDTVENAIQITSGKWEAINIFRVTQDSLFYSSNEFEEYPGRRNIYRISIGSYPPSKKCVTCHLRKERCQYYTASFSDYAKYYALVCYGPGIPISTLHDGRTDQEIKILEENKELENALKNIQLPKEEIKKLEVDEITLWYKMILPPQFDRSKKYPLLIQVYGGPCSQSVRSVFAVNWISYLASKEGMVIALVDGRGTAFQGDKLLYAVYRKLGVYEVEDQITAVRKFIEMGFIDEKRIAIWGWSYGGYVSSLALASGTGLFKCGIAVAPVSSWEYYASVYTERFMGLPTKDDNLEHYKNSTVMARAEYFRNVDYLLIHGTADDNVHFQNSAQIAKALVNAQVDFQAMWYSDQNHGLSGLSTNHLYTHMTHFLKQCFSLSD
On the procedure:
as §1

The Ki is the equilibrium dissociation constant of an inhibitor or competing ligand from its target.

With `C[C@@H](O)[C@@H]1NC(=O)[C@@H](NC(=O)CCOCCOCCNC(=O)CN2CCN(CC(=O)O)CCN(CC(N)=O)CCN(CC(=O)O)CC2)CSCc2ccccc2CSC[C@@H](C(N)=O)NC(=O)[C@H](Cc2c[nH]c3ccccc23)NC(=O)[C@H](Cc2c[nH]c3ccccc23)NC(=O)[C@H](CCC(N)=O)NC(=O)[C@H](CCC(=O)O)NC(=O)[C@H](Cc2c[nH]c3ccccc23)NC(=O)[C@@H]2CCCN2C1=O` [VMT-FAP-2-59, PSC-PEG2-[C(oXdB)TPWEQWWC]-NH2] ({X1-PEG2}-CTPWEQWWC-NH2; linker 1-9 via oXylylene), the Ki on mouse FAP was 4.2 nM; in test [1] it was 152 nM; at human FAP, 0.4 nM.
